Activity data for one compound are collected here from patent US8344000B2, “Compounds which have activity at M1 receptor and their uses in medicine” (Glaxo Group Limited, priority 2007, dated 2013).

The target in this assay is T1, human muscarinic M1 receptors (Homo sapiens, UniProt P11229).
T1 construct: expressed in transfected cells
T1 sequence (P11229 1-460): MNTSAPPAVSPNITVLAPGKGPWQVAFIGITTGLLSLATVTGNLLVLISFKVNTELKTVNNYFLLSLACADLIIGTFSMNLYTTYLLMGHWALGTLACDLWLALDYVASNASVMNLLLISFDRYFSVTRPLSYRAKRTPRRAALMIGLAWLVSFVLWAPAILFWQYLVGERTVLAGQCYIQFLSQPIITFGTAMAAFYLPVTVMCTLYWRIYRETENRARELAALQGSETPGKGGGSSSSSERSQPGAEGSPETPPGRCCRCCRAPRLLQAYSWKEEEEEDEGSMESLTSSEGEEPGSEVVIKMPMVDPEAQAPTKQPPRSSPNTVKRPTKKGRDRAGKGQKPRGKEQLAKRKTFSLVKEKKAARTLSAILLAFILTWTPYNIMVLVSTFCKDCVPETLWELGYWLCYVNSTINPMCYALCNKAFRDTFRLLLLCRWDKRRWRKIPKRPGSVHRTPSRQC
The assay is described as follows: FLIPR experiments on M1 receptors (calcium response, CHO-M1 cells). Format: cell-based. The note with it: tested for activity; assay and threshold not specified at the place. How it is done:
FLIPR Experiments on M1 Receptors to Determine Agonist/Antagonist Potency
Compounds of the invention were characterized in a functional assay to determine their ability to activate the intracellular calcium pathway in CHO cells with stable expression of human muscarinic M1 receptors using FLIPR (Fluorometric Imaging Plate Reader) technology. Briefly, CHO-M1 cells were plated (15,000/well) and allowed to grow overnight at 37 degrees. Media were removed and 30 μL loading buffer (HBSS with 2.5 mM probenicid, 2 μM Fluo-4, 500 μM Brilliant Black, pH 7.4) was added. After incubation at 37 degrees for 90 minutes, 10 μL of the assay buffer (HBSS with 2.5 mM probenecid, pH 7.4) containing test compounds was added to each well on the FLIPR instrument. Calcium response was monitored to determine agonism. […] Calcium response was then monitored again to determine compound's antagonism to acetylcholine. […] Results were imported into ActivityBase data analysis suite (ID Business Solution Inc., Parsippany, N.J.) where the curves were analysed by non-linear curve fitting and the resulting pEC50/fpKi were calculated. The maximum asymptotes of agonist compounds were calculated as percentage of maximum FLIPR response induced by carbamoylcholine chloride added as control on the same compound plates.

Take `Cl.O=C1Cc2ccccc2N1C1CCN(C2CCOCC2)CC1` [1-[1-(Tetrahydro-2H-pyran-4-yl)-4-piperidinyl]-1,3-dihydro-2H-indol-2-one hydrochloride]: the activity result is “below the threshold value”.
